Source: article PMC7187627 (Antimicrobial Agents and Chemotherapy, 2019)

Assay: Safety and tolerability (adverse events, laboratory tests, ECG), multiple-ascending-dose phase 1 study
Assay type: in vivo
Details: all TEAEs
Description: Subjects were monitored closely with serial physical examinations, blood evaluations, and 12-lead ECGs. Subjects underwent safety laboratory testing, including measurement of blood cell counts (white blood cell [WBC] with differential, hemoglobin, and platelets), serum chemistry (sodium, potassium, chloride, calcium, bicarbonate, glucose, creatinine, blood urea nitrogen [BUN], creatine kinase [CK], aspartate aminotransferase [AST], alanine aminotransferase [ALT], alkaline phosphatase [ALP], total bilirubin, protein, albumin, amylase, and lipase) and urinalysis (protein, blood, and glucose). Study halting criteria had been established and were reviewed by an independent safety monitor (ISM) and the Safety Monitoring Committee (SMC) prior to proceeding with dosing within a cohort or to the next cohort.
The safety population included all subjects who received at least one dose of the study drug. The safety and tolerability of CRS3123 were evaluated by the sequential review of reported adverse events (AEs), changes from baseline in physical examination findings, vital sign measurements, safety laboratory tests (hematology, clinical chemistry, and urinalysis), and key 12-lead ECG findings. All safety assessments were summarized with descriptive statistics or frequency counts.
The period of observation for AE reporting began on day 1 at the time of study drug administration and continued through the final visit.
All AEs were coded to system organ class (SOC) and preferred term (PT) using the Medical Dictionary for Regulatory Activities (MedDRA), version 17.0 (https://www.meddra.org/). A treatment-emergent AE (TEAE) was defined as any AE that occurred during the study observation period (i.e., from day 1 at the time of study drug administration through the final visit). An AE with a partial onset date was classified as a TEAE if the reported partial onset date could not definitely be identified as before the date of study drug administration. Any AE with a missing onset date or missing time on day of study drug administration was classified as a TEAE.
To count the overall number of subjects who experienced each TEAE and calculation of an occurrence rate, a subject experiencing multiple occurrences of an AE was counted only once for that PT. Similarly, if a subject experienced multiple TEAEs within the same SOC, that subject was counted once to calculate an occurrence rate for the SOC. To count the number of subjects who experienced each TEAE by severity classification (mild, moderate, severe, and life-threatening) and calculate an occurrence rate, a subject experiencing multiple occurrences of an AE of the same severity was counted once in that particular severity classification for that PT. If a subject experienced multiple occurrences of an AE of differing severities, only the most severe occurrence within each PT was counted.

Compound: O=c1cc(NCCCN[C@@H]2CCOc3c(Br)cc(Br)cc32)[nH]c2ccsc12 [CRS3123]
- No. (%) of subjects: Aspartate aminotransferase increased (Cohort A, 200 mg Q12h (n = 8)): 0 (0.0)
- No. (%) of subjects: Blood bilirubin increased (Cohort A, 200 mg Q12h (n = 8)): 0 (0.0)
- No. (%) of subjects: Blood calcium increased (Cohort A, 200 mg Q12h (n = 8)): 0 (0.0)
- No. (%) of subjects: Blood potassium increased (Cohort A, 200 mg Q12h (n = 8)): 0 (0.0)
- No. (%) of subjects: Blood pressure, diastolic, decreased (Cohort A, 200 mg Q12h (n = 8)): 0 (0.0)
- No. (%) of subjects: Blood pressure, diastolic, increased (Cohort A, 200 mg Q12h (n = 8)): 0 (0.0)
- No. (%) of subjects: Blood pressure, systolic, decreased (Cohort A, 200 mg Q12h (n = 8)): 0 (0.0)
- No. (%) of subjects: Blood pressure, systolic, increased (Cohort A, 200 mg Q12h (n = 8)): 0 (0.0)
- No. (%) of subjects: Diarrhea (Cohort A, 200 mg Q12h (n = 8)): 0 (0.0)
- No. (%) of subjects: Dry skin (Cohort A, 200 mg Q12h (n = 8)): 0 (0.0)
- No. (%) of subjects: Dysgeusia (Cohort A, 200 mg Q12h (n = 8)): 0 (0.0)
- No. (%) of subjects: Ear and labyrinth disorders (system organ class) (Cohort A, 200 mg Q12h (n = 8)): 1 (12.5)
- No. (%) of subjects: Ear discomfort (Cohort A, 200 mg Q12h (n = 8)): 1 (12.5)
- No. (%) of subjects: Erythema (Cohort A, 200 mg Q12h (n = 8)): 0 (0.0)
- No. (%) of subjects: Gastrointestinal disorders (system organ class) (Cohort A, 200 mg Q12h (n = 8)): 0 (0.0)
- No. (%) of subjects: General disorders and administration site conditions (system organ class) (Cohort A, 200 mg Q12h (n = 8)): 0 (0.0)
- No. (%) of subjects: Headache (Cohort A, 200 mg Q12h (n = 8)): 1 (12.5)
- No. (%) of subjects: Hemoglobin decreased (Cohort A, 200 mg Q12h (n = 8)): 2 (25.0)
- No. (%) of subjects: Infections and infestations (system organ class) (Cohort A, 200 mg Q12h (n = 8)): 1 (12.5)
- No. (%) of subjects: Infusion site thrombosis (Cohort A, 200 mg Q12h (n = 8)): 0 (0.0)
- No. (%) of subjects: Injury, poisoning, and procedural complications (system organ class) (Cohort A, 200 mg Q12h (n = 8)): 1 (12.5)
- No. (%) of subjects: Investigations (system organ class) (Cohort A, 200 mg Q12h (n = 8)): 5 (62.5)
- No. (%) of subjects: Lipase increased (Cohort A, 200 mg Q12h (n = 8)): 1 (12.5)
- No. (%) of subjects: Musculoskeletal and connective tissue disorders (system organ class) (Cohort A, 200 mg Q12h (n = 8)): 0 (0.0)
- No. (%) of subjects: Myalgia (Cohort A, 200 mg Q12h (n = 8)): 0 (0.0)
- No. (%) of subjects: Nervous system disorders (system organ class) (Cohort A, 200 mg Q12h (n = 8)): 1 (12.5)
- No. (%) of subjects: Oropharyngeal pain (Cohort A, 200 mg Q12h (n = 8)): 0 (0.0)
- No. (%) of subjects: Psychiatric disorders (system organ class) (Cohort A, 200 mg Q12h (n = 8)): 1 (12.5)
- No. (%) of subjects: Respiratory, thoracic, and mediastinal disorders (system organ class) (Cohort A, 200 mg Q12h (n = 8)): 0 (0.0)
- No. (%) of subjects: Skin and subcutaneous tissue disorders (system organ class) (Cohort A, 200 mg Q12h (n = 8)): 0 (0.0)
- No. (%) of subjects: Subjects with TEAEs (Cohort A, 200 mg Q12h (n = 8)): 8 (100.0)
- No. (%) of subjects: Throat irritation (Cohort A, 200 mg Q12h (n = 8)): 0 (0.0)
- No. (%) of subjects: Upper respiratory tract infection (Cohort A, 200 mg Q12h (n = 8)): 1 (12.5)
- No. (%) of subjects: White blood cell count increased (Cohort A, 200 mg Q12h (n = 8)): 0 (0.0)
- No. (%) of subjects: Alanine aminotransferase increased (Cohort B, 400 mg Q12h (n = 8)): 0 (0.0)
- No. (%) of subjects: Amylase increased (Cohort B, 400 mg Q12h (n = 8)): 1 (12.5)
- No. (%) of subjects: Anxiety (Cohort B, 400 mg Q12h (n = 8)): 0 (0.0)
- No. (%) of subjects: Arthropod bite (Cohort B, 400 mg Q12h (n = 8)): 0 (0.0)
- No. (%) of subjects: Aspartate aminotransferase increased (Cohort B, 400 mg Q12h (n = 8)): 0 (0.0)
- No. (%) of subjects: Blood bilirubin increased (Cohort B, 400 mg Q12h (n = 8)): 0 (0.0)
- No. (%) of subjects: Blood calcium increased (Cohort B, 400 mg Q12h (n = 8)): 1 (12.5)
- No. (%) of subjects: Blood potassium increased (Cohort B, 400 mg Q12h (n = 8)): 1 (12.5)
- No. (%) of subjects: Blood pressure, diastolic, decreased (Cohort B, 400 mg Q12h (n = 8)): 0 (0.0)
- No. (%) of subjects: Blood pressure, diastolic, increased (Cohort B, 400 mg Q12h (n = 8)): 0 (0.0)
- No. (%) of subjects: Blood pressure, systolic, decreased (Cohort B, 400 mg Q12h (n = 8)): 0 (0.0)
- No. (%) of subjects: Blood pressure, systolic, increased (Cohort B, 400 mg Q12h (n = 8)): 0 (0.0)
- No. (%) of subjects: Diarrhea (Cohort B, 400 mg Q12h (n = 8)): 2 (25.0)
